The record followed here is patent US9447081B2, “Substituted pyrimidines as pharmaceuticals and insecticides” (SHENYANG SINOCHEM AGROCHEMICALS R&D CO., LTD., priority 2012, dated 2016).

SMILES strings stand for the structures.

Experiment [1] has as its system carmine spider mite. The experiment is described as follows: Acaricidal activity against carmine spider mite (airbrush spray). In kind it is in vivo. To be noted: Tetranychus cinnabarinus; 100 mg/L, adults, mortality after 72 hrs. As to the method:
(§1) Compounds were dissolved in mixed solvent (acetone:methanol=1:1), and diluted to required concentration with water containing 0.1% of tween 80.
(§2) Diamond back moth, armyworm, Green Peach Aphid and carmine spider mite were used as targets and the method of spraying by airbrush was used for determination of insecticidal biassays.
Method: Broadbean shoots with two true leaves in pot were taken, the healthy adults of carmine spider mite were inoculated to the leaves. The adults were counted and then sprayed with airbrush at the pressure of 0.7 kg/cm^2 and at dose of 0.5 ml. 3 replicates were set for each treatment. And then they were maintained in standard observation room. Scores were conducted and mortalities were calculated after 72 hrs.

Experiment [2] concerns cucumber downy mildew. The experiment is described as follows: Protectant activity in vivo (whole plant), cucumber downy mildew. To be noted: for pest or weed control at 25 µg/mL / pest or weed control at 50 µg/mL / pest or weed control at 100 µg/mL / pest or weed control at 400 µg/mL: Cucumis sativus, 168 h, read-out: protectant activity against cucumber downy mildew. As to the method: (§3) The method is as followed: The whole plant is used in this test. The compound is dissolved in a proper solvent to get mother solution. The proper solvent is selected from acetone, methanol, DMF and so on according to their dissolving capability to the sample. […] The testing solution is sprayed to the host plant by a special plant sprayer. The plant is inoculated with fungus after 24 hours. According to the infecting characteristic of fungus, the plant is stored in a humidity chamber and then transferred into greenhouse after infection is finished. And the other plants are placed in greenhouse directly. The activity of compound is obtained by eyeballing after 7 days in common.

For experiment [3], the system named is rice blast. In words: microbe, parasite or virus in culture. In kind it is cell-based. To be noted: for inhibition at 25 µg/mL: Pyricularia oryzae, 24 h, read-out: inhibition rate against rice blast; for inhibition rate against rice blast: in vitro, 24 hours.
Experiment [4] has as its system Green peach aphids (Myzus Persicae Sulzer). The experiment is described as follows: Activity against green peach aphid (airbrush foliar spray). Type of experiment: in vivo. The note with it: death rate after 48 h; for pest or weed control at 10 µg/mL / pest or weed control at 100 µg/mL / pest or weed control at 600 µg/mL: Myzus persicae, foliar, 48 h; for pest or weed control at 10 µg/mL: 10 mg/L, read-out: Insecticidal activity against peach aphid; for pest or weed control at 100 µg/mL: 100 mg/L; for pest or weed control at 100 µg/mL / pest or weed control at 600 µg/mL: read-out: Insecticidal activity against peach aphid (control). The procedure: as §1, §2
Method: Filter papers were put in culture dishes (Diameter=6 cm), and water was dripped on filter papers for preserving moisture. Green peach aphids (Myzus Persicae Sulzer) were maintained on cabbage. Leaves (Diameter=3 cm) of approximately 15-30 aphids were put in the culture dishes. Bioactivity tests were used the method of Airbrush Foliar Spray, pressure=10 psi (0.7 kg/cm2), spray volume=0.5 mL. The studies were conducted at three constant temperatures 25±1 C. in incubator cabinets with 60±5% RH. Survey the survival aphids after 48 h and calculate the death rates.

Experiment [5] concerns corn rust. The experiment is described as follows: Protectant activity in vivo (whole plant), corn rust. To be noted: Zea mays, 168 h, read-out: protectant activity against corn rust; for pest or weed control at 25 µg/mL: 25 mg/L; for pest or weed control at 100 µg/mL: 100 mg/L; for pest or weed control at 400 µg/mL: 400 mg/L; for pest or weed control at 6.25 µg/mL: 6.25 mg/L. As to the method:
as §3

Experiment [6] relates to armyworm. The experiment is described as follows: Insecticidal activity against armyworm (airbrush spray). In kind it is in vivo. The note with it: second instar larvae, mortality after 72 h; for pest or weed control at 600 µg/mL: 600 mg/L. The procedure:
as §1, §2
The method of spraying by airbrush: The corn leaves were made into plates of 2 cm diameter by use of punch. A test solution (0.5 ml) was sprayed by airbrush at the pressure of 0.7 kg/cm^2 to both sides of every plate. 10 Second instar larvae were put into the petri-dishes after the leaf disc air-dried and 3 replicates were set for each treatment. Then the insects were maintained in observation room (25° C., 60˜70% R.H.). Scores were conducted and mortalities were calculated after 72 h.

Experiment [7] concerns wheat powdery mildew. In words: Protectant activity in vivo (whole plant), wheat powdery mildew. The note with it: for pest or weed control at 25 µg/mL: 25 mg/L; for pest or weed control at 100 µg/mL: 100 mg/L. As to the method:
as §3

In experiment [8] the test system is diamond back moth. In words: Insecticidal activity against diamond back moth (airbrush spray). Type of experiment: in vivo. To be noted: mortality after 72 h, read-out: control of the second instar larvae of diamond back moth; for pest or weed control at 100 µg/mL: 100 mg/L; for pest or weed control at 600 µg/mL: 600 mg/L. As to the method:
as §1, §2
The method of spraying by airbrush: The cabbage leaves were made into plates of 2 cm diameter by use of punch. A test solution (0.5 ml) was sprayed by airbrush at the pressure of 0.7 kg/cm^2 to both sides of every plate. 10 Second instar larvae were put into the petri-dishes after the leaf disc air-dried and 3 replicates were set for each treatment. Then the insects were maintained in observation room (25° C., 60˜70% R.H.). Scores were conducted and mortalities were calculated after 72 h.

The mark [9] stands for this setting: Triticum aestivum, 168 h, 400 mg/L, read-out: protectant activity against wheat powdery mildew.
Setting [10] is: Triticum aestivum, 168 h, read-out: protectant activity against wheat powdery mildew.

Regarding `CCc1ncnc(NCc2ccc3c(c2)OCO3)c1Cl` [CK1], the pest or weed control at 100 µg/mL in experiment [1] is 39%; in experiment [2] (100 mg/L), 30%; in experiment [4], 30%; in experiment [5], 20%. Moreover, the pest or weed control at 25 µg/mL in experiment [2] (25 mg/L) and in experiment [5] was 0% in each case. Moreover, in experiment [2] (50 mg/L), the pest or weed control at 50 µg/mL was determined as 20%. Also, the pest or weed control at 400 µg/mL in experiment [2] (400 mg/L) stood at 100%; in experiment [5] it was 70%; in experiment [7] (setting [9]) it was 0%. The inhibition at 25 µg/mL in experiment [3] was determined as 0%. Also, the pest or weed control at 10 µg/mL in experiment [4] worked out at 0%. Besides, the pest or weed control at 600 µg/mL in experiment [4] (600 mg/L) is 70%; in experiment [6], 0%.

For the compound `Cc1ncnc(NCc2ccc3c(c2)OCO3)c1Cl` [CK2], the pest or weed control at 100 µg/mL in experiment [1] amounted to 0%; in experiment [2] (100 mg/L), 60%; in experiment [4] it was 12%; in experiment [5], 0%; in experiment [6] (100 mg/L), 0%; in experiment [8], 5%. Besides, the pest or weed control at 100 µg/mL in experiment [7] (setting [10]) came to 60%. Besides, the pest or weed control at 25 µg/mL in experiment [2] (25 mg/L) turned out to be 0%; in experiment [7] (setting [10]), 40%. The pest or weed control at 50 µg/mL in experiment [2] (50 mg/L) is 40%. Moreover, the pest or weed control at 400 µg/mL was determined as 100% in experiment [2] (400 mg/L), 75% in experiment [5] and 60% in experiment [7] (setting [9]). In experiment [3], the inhibition at 25 µg/mL worked out at 0%. For the same compound, the pest or weed control at 10 µg/mL in experiment [4] was found to be 0%. For the same compound, the pest or weed control at 600 µg/mL in experiment [4] (600 mg/L) amounted to 20%; in experiment [6], 14%; in experiment [8], 20%. Moreover, the pest or weed control at 6.25 µg/mL in experiment [7] (Triticum aestivum, 168 h, 6.25 mg/L, read-out: protectant activity against wheat powdery mildew) turned out to be 0%.

On to `COc1ccc(CCNc2ncnc(C(F)F)c2Cl)cc1OC` [CK5], for which the pest or weed control at 100 µg/mL in experiment [1] amounted to 0%; in experiment [4] it was 35%; in experiment [8], 20%; in experiment [7] (setting [10]), 20%. Further, the inhibition at 25 µg/mL in experiment [3] stood at 0%. In addition, the pest or weed control at 10 µg/mL in experiment [4] worked out at 8%. Also, the pest or weed control at 600 µg/mL in experiment [4] (600 mg/L) turned out to be 100%; in experiment [6] it was 0%; in experiment [8], 40%. The pest or weed control at 25 µg/mL in experiment [7] (setting [10]) was 0%. In addition, the pest or weed control at 400 µg/mL in experiment [7] (setting [9]) came out at 100%.

On to `COc1ccc(CNc2ncnc(C(F)F)c2Cl)cc1OC` [CK6], for which the pest or weed control at 100 µg/mL was 0% in experiment [1], 0% in experiment [2] (100 mg/L), 0% in experiment [8] and 25% in experiment [7] (setting [10]). Also, the results for the pest or weed control at 400 µg/mL in experiment [2] (400 mg/L) and in experiment [7] (setting [9]) were 80% and 85%, respectively. The inhibition at 25 µg/mL in experiment [3] was 0%. Also, the pest or weed control at 600 µg/mL in experiment [4] (600 mg/L) and in experiment [6] was 0% in each case. Also, in experiment [7] (setting [10]), the pest or weed control at 25 µg/mL turned out to be 0%.

For `FC(F)c1ncnc(NCc2ccc3c(c2)OCO3)c1Cl` [CK9], the pest or weed control at 100 µg/mL was 0% in experiment [1], 0% in experiment [2] (100 mg/L), 25% in experiment [5] and 10% in experiment [7] (setting [10]). For the same compound, the results for the pest or weed control at 400 µg/mL in experiment [2] (400 mg/L), in experiment [5] and in experiment [7] (setting [9]) were 50%, 80% and 70%, respectively. In experiment [3], the inhibition at 25 µg/mL worked out at 0%. In addition, the pest or weed control at 6.25 µg/mL in experiment [5] was 0%. Besides, the pest or weed control at 25 µg/mL in experiment [5] and in experiment [7] (setting [10]) was 0% throughout. For the same compound, the pest or weed control at 600 µg/mL in experiment [6] and in experiment [8] was 0% throughout.

As for `ClCc1ncnc(NCc2ccc3c(c2)OCO3)c1Cl` [CK12], the pest or weed control at 100 µg/mL in experiment [1], in experiment [2] (100 mg/L), in experiment [4] and in experiment [5] was 0% in each case. The pest or weed control at 400 µg/mL in experiment [2] (400 mg/L) stood at 50%; in experiment [5], 40%; in experiment [7] (setting [9]) it was 0%. For the same compound, the pest or weed control at 10 µg/mL in experiment [4] came out at 0%. Besides, the pest or weed control at 600 µg/mL in experiment [4] (600 mg/L) was 10%; in experiment [6], 0%; in experiment [8] it was 0%.

In the case of `Clc1ncnc(NCCc2ccc3c(c2)OCO3)c1Cl` [Compound 2], the “protectant activity against cucumber downy mildew” value in experiment [2] (25 mg/L), in experiment [2] (50 mg/L), in experiment [2] (100 mg/L) and in experiment [2] (400 mg/L) was 100% each time. Also, the entries for the “inhibition rate against rice blast” value in experiment [3] (2.8 mg/L), in experiment [3] (8.3 mg/L) and in experiment [3] (25 mg/L) were 80%, 100% and 100%, respectively. In addition, in experiment [7] (400 mg/L), the “protectant activity against wheat powdery mildew” value came to 100%.

Turning to `FC(F)(F)c1ncnc(NCCc2ccc3c(c2)OCO3)c1Cl` [Compound 20], the “protectant activity against cucumber downy mildew” value in experiment [2] (25 mg/L) amounted to 20%; in experiment [2] (50 mg/L), 100%; in experiment [2] (100 mg/L), 100%; in experiment [2] (400 mg/L) it was 100%.

`Cc1ncnc(NCCc2ccc3c(c2)OCO3)c1Cl` [Compound 1451]: the pest or weed control at 25 µg/mL in experiment [2] (25 mg/L) came to 0%. The pest or weed control at 50 µg/mL in experiment [2] (50 mg/L) stood at 0%. Moreover, the pest or weed control at 100 µg/mL in experiment [2] (100 mg/L) turned out to be 0%. For the same compound, the pest or weed control at 400 µg/mL in experiment [2] (400 mg/L) turned out to be 100%; in experiment [5], 80%. Further, the pest or weed control at 600 µg/mL in experiment [4] (600 mg/L) stood at 100%.

As to `Cc1ncnc(NCCc2ccc3c(c2)OCO3)c1Cl` [Compound 1452], the “protectant activity against cucumber downy mildew” value in experiment [2] (25 mg/L) is on record as 0%; in experiment [2] (50 mg/L), 0%; in experiment [2] (100 mg/L), 0%; in experiment [2] (400 mg/L), 95%. The “Insecticidal activity against peach aphid (control)” value in experiment [4] (600 mg/L) worked out at 90%. Moreover, the pest or weed control at 600 µg/mL in experiment [8] turned out to be 80%.

`CCc1ncnc(NCCc2ccc3c(c2)OCO3)c1Cl` [Compound 1465]: in experiment [4], the pest or weed control at 10 µg/mL came to 0% and the pest or weed control at 100 µg/mL is 70%. Also, the pest or weed control at 600 µg/mL in experiment [4] (600 mg/L) stood at 100%. In experiment [5], the pest or weed control at 6.25 µg/mL was found to be 0%, the pest or weed control at 25 µg/mL was found to be 50%, the pest or weed control at 100 µg/mL was 95% and the pest or weed control at 400 µg/mL stood at 100%. Besides, the pest or weed control at 600 µg/mL in experiment [8] amounted to 100%.

In general, inhibition refers to the percentage by which the read-out fell short of the control.
